# Measured values reported in a melting point compilation (Tetko et al.; mined from patent text by program, amines drawn as free bases though some values may be those of a salt).
row,SMILES,melting point
1,N#Cc1nn(-c2c(Cl)cc(C(F)(F)F)cc2Cl)c(N)c1-c1ccoc1Cl,153 °C
2,COCCN1C(=O)C(C)(C)C(=O)N(C)c2cc(CN(CCn3cc(C)c4occc4c3=O)Cc3cccnc3C)ccc21,127 to 130 °C
3,Cc1ccc(C2(CC(=O)O)CNC(=O)C2)cc1 (stereo not given),184 to 186 °C
4,CCOC(=O)Oc1ccc(C(=O)OCCN2CCN(CCN3CCOCC3)CC2)cc1,85 to 87 °C
5,Cc1cn(-c2nc(C3=Nc4ccc(-c5ccc(F)cc5)cc4NC(=O)C3)cs2)cn1,229 °C
6,NC(=O)c1ccc(F)c2c1CC(N(CCc1c[nH]c3ccc(F)cc13)CC1CC1)CO2 (stereo not given),132 °C
7,N#Cc1cn(-c2ccc(C(F)(F)F)cc2)c(=O)[nH]c1=O,230 to 232 °C
8,Cn1nc(-c2ccc(Cl)cc2)c2ccccc2c1=O,151 to 152 °C
9,Cc1ccc(-n2ccc3c(OCC(C)(C)C)nn(C)c(=O)c32)c(C)c1,146 to 147 °C
10,NCCCCNC(=O)N1c2ccccc2C=Cc2ccccc21,114 to 116 °C
11,CC(C)Oc1ccc(-c2nc(-c3ccc(OC(C)C)cc3O)nc(-c3ccc(OC(C)C)cc3O)n2)c(O)c1,122 °C
12,CCOC(=O)C(=CNc1nccs1)C(=O)c1ccc(Cl)nc1Cl,119 to 122 °C
13,O=c1nc(-c2cccc(-c3cccs3)n2)sc2ccccc12,222 to 223 °C
14,CC(C)(CN)c1ccc(C(=O)NCCc2ccc3[nH]cc(C(=N)N)c3c2)cc1,67 to 70 °C
15,O=C1NCCN1c1ccc(S(=O)(=O)Nc2ccc3c(c2)OCO3)cc1,219 to 220 °C
16,Cc1nnc2n1-c1sc(Cl)cc1C(c1ccccn1)=NC2,174 to 176 °C
17,CCN1CC(=O)N(C)c2cc([N+](=O)[O-])c(OC)cc2C1,129 to 131 °C
18,OC(CS)(Cn1cncn1)c1ccc(Cl)cc1Cl (stereo not given),139 to 142 °C
19,CCc1ccccc1CCC(=O)O,87 to 91 °C
20,Clc1ncnc(Cl)c1-c1ccc(-c2ccccc2)cc1,144 °C
21,COC(=O)CCCC#Cc1cc(Cl)ccc1NS(=O)(=O)c1ccc2nc(N)sc2c1,61 to 65 °C
22,N#Cc1nn(-c2c(Cl)cc(C(F)(F)F)cc2Cl)cc1C1CC1,124 °C
23,C=C(c1ccccc1)c1ccc(N(C)C)cc1,51 to 52 °C
24,Nc1c(NCCCOc2cccc(C3OCCO3)c2)c(=O)c1=O,209 to 210 °C
25,CCN(C(=O)c1ccccc1C(=O)c1ccc(Cl)cc1)[C@@H]1CCCC[C@@H]1NS(=O)(=O)c1ccc(C)cc1 (relative stereo),178 to 180 °C

row,SMILES,melting point
1,CCOC(=O)c1[nH]cc(Cc2cccc(F)c2C)c1-c1ccccc1,120 to 122 °C
2,Nc1cccc(CC(=O)NCc2ccccc2Br)c1,110 to 112 °C
3,CCNC(=O)c1ccc(N2CCN(Cc3cc4c(c(OC)c3)OC(C)C(=O)N4)CC2)c(F)c1 (stereo not given),228 to 229 °C
4,Clc1ccc2c(c1)N(CC1CN3CCC1CC3)c1ccccc1S2 (stereo not given),122 °C
5,CCOC(=O)C(=O)Nc1cccc(N(C)C)c1C#N,124 to 126 °C
6,Cc1nnc(-c2ccc3occc3c2)o1,159 to 160 °C
7,"CCCCCCCOc1ccc(CCC(CO)(CCO)NC(=O)c2cc([N+](=O)[O-])cc([N+](=O)[O-])c2)cc1 (single isomer, unassigned; (+))",78 to 79 °C
8,O=C1C(CN2CCN(CCO)CC2)CCN1c1ccc(Cl)cc1 (stereo not given),130 to 131 °C
9,CC(C)(C)c1cc(NC(=O)NNC(=O)c2ccc(N)cc2)cc(C(C)(C)C)c1O,245 to 246 °C
10,O=C(OC1c2nccnc2C(=O)N1c1ccc2ccc(Cl)nc2n1)N1CCCCC1 (stereo not given),249 °C
11,COc1cc(Br)cc([N+](=O)[O-])c1N,137 to 138 °C
12,Oc1ccc(-c2nc3cc(O)ccc3o2)c(O)c1,> 300 °C
13,CN(c1cccc2cc(C3=NCC(CCN)S3)[nH]c12)S(=O)(=O)c1cccs1 (stereo not given),172 to 174 °C
14,Nc1ccc2ccc(Oc3ccccc3Br)nc2n1,206 °C
15,CCN(CC1CCCC1)c1nc2c(cc1CN(Cc1cc(C(F)(F)F)cc(C(F)(F)F)c1)C(N)=O)c(C)nn2C,139 °C
16,CCOC(=O)C(C)Oc1ccc(Oc2nc3ccc(Cl)cc3s2)cc1 (stereo not given),49 °C
17,Cc1cccc(-c2ccccc2NC(=N)N2CCCCC2)c1,131 °C
18,CCC(CC)Nc1c(Br)c(CBr)nc2c1nnn2-c1c(C)cc(C)cc1C,115 to 117 °C
19,COC(=O)c1ccc2c(c1)Nc1nccnc1S2,265 to 268 °C
20,O=S(=O)(Br)c1ccc(Br)s1,48 to 50 °C
21,c1ccc(C(OC2CCN(CCCn3cnc4ccccc43)CC2)c2ccccc2)cc1,110 °C
22,NC(CO)(CO)CCc1ccc(C(=O)CCCCCc2ccccc2)cc1,118 to 120 °C
23,Oc1cc2ccc(CCCCCl)cc2cc1O,54 to 59 °C
24,Nc1nc(N)c2cc(Sc3ccc(Cl)c(Cl)c3)ccc2n1,232 to 234 °C
25,CC(C)(C)OC(=O)NCC(=O)N1CCC(=C2c3ccc(Cl)cc3CCc3cccnc32)CC1,209 to 211 °C
